# In article PMC11480411, “Mucosal sugars delineate pyrazine vs pyrazinone autoinducer signaling in Klebsiella oxytoca” (Nature Communications, 2024):
# Test system: leup operon (leupeptin BGC) promoter in K. oxytoca ATCC 8724
# Assay: GFP-based transcriptional reporter for the leup operon
# Format: cell-based, Klebsiella oxytoca
# Details: carbohydrate screen, M9 + casamino acid + 0.4% indicated sugar, 30 °C, 24 h
# Description: We previously examined a panel of 84 clinical K. oxytoca isolates (including recently renamed Klebsiella michiganensis isolates) for the presence of either the leup operon or npsB, an NRPS of the tilimycin/tilivalline gene cluster. […] While the roles of tilivalline and tilimycin in hemorrhagic colitis are well studied[8],[9], the operon for leupeptin biosynthesis is “silent” in K. oxytoca under typical laboratory culture conditions (i.e., leupeptin production is undetectable). Therefore, our study commenced by exploring growth conditions required to trigger leupeptin biosynthesis in K. oxytoca. To achieve this, we generated a green fluorescent protein (GFP)-based reporter system to monitor leup transcription in K. oxytoca ATCC 8724 (recently renamed as Klebsiella michiganensis (ATCC 8724), Fig. 1a). We utilized λ-red recombineering techniques[38] to replace the first biosynthetic gene (leupA) of the leupeptin BGC with a GFP-spectinomycin resistance cassette. […] Consequently, conditions that elicit transcription of the leupeptin BGC can be monitored by GFP fluorescence intensity.
# 5 mL of the leupeptin reporter strain was cultured aerobically in 10 g/L of LB (Becton Dickinson), yeast extract, GAM (HiMedia Laboratories), horse liver extract (HiMedia Laboratories), malt extract (VWR), meat extract (HiMedia Laboratories), YPD (Dot Scienticifc), brain heart infusion (Becton Dickinson), porcine mucin (Sigma-Aldrich, M1778), clostridial (Becton Dickinson), TSB (VWR), or casamino acid supplemented (5 g/L, VWR) M9 minimal salts (MP Biomedicals) at 30 °C for 24 h at 250 rpm. Cultures were lysed via sonication, centrifuged, and 150 µL of the supernatants were aliquoted into black well clear bottom 96 well plates. GFP fluorescence measurements were performed on a BioTek Synergy H1 plate reader with an excitation wavelength of 488 nm and an emission wavelength of 525 nm. For the carbohydrate screen, the leupeptin reporter strain was cultured in M9 minimal medium (MPbio) supplemented with casamino acid (5 g/L, VWR) and 0.4% indicated sugar aerobically at 30 °C for 24 h at 250 rpm.
smiles,measurement,setting,value
OC[C@@H](O)[C@@H](O)[C@H](O)[C@@H](O)CO [Sorbital],"GFP fluorescence, GFP Strain + Media",leup GFP reporter strain,10051 RFU
same,"GFP fluorescence, WT + Media",wildtype K. oxytoca without reporter (background),6226 RFU
